Experimental data from the supplement of paper PMC4862054.

How the values were obtained:
[1] = system: MFM-223; conditions: 72 h
How it was run: (§1)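 Breast cancer cell lines (20 µl suspension) were seeded into 384-well plates holding compound at 5 concentrations in 10-fold steps over a compound-specific 10,000-fold range, then incubated 72 h. Cell death was read first by CellTox Green fluorescence (485/520 nm), then viability by CellTiter-Glo luminescence after 10 min at room temperature. Each plate was normalised to 0.1 % DMSO and a positive kill control. EC50 was fitted from the dose-response curves and censored at the top concentration.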

[2] = system: MDA-MB-453; conditions: 72 h
How it was run: (§2)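 Each 384-well plate was pre-loaded with compound dissolved in 5 µl medium, received breast cancer cells in 20 µl suspension, and was incubated 72 h. A 2.5 µl addition of CellTiter-Blue for 2 h at 37 °C was followed by a fluorescence read at 560/590 nm. Data were normalised per plate to vehicle and a positive kill control and checked by Z'-factor. EC50 was fitted from the percent-inhibition dose-response curve, censored at the highest concentration, excluding rows with a drug sensitivity score of zero.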

[3] = system: DU-4475; conditions: 72 h
How it was run: as §2

[4] = system: CAL-120; conditions: 72 h
How it was run: as §1

[5] = system: DU-4475; conditions: 72 h; remark: listed apart in the source
How it was run: as §1

[6] = system: Hs578T; conditions: 72 h
How it was run: as §1

[7] = system: CAL-51; conditions: 72 h
How it was run: as §1

[8] = system: HCC1937; conditions: 72 h
How it was run: as §1

[9] = system: HCC1599; conditions: 72 h
How it was run: as §1

[10] = system: CAL-85-1; conditions: 72 h
How it was run: as §1

[11] = system: MDA-MB-468; conditions: 72 h
How it was run: as §1

[12] = system: MDA-MB-453; conditions: 72 h; remark: listed apart in the source
How it was run: as §1

[13] = system: BT-549; conditions: 72 h
How it was run: as §1

[14] = system: BT-474; conditions: 72 h
How it was run: as §1

[15] = system: SK-BR-3; conditions: 72 h
How it was run: as §1

[16] = system: MDA-MB-436; conditions: 72 h
How it was run: as §1

[17] = system: MDA-MB-231; conditions: 72 h
How it was run: as §1

[18] = system: HDQ-P1; conditions: 72 h
How it was run: as §1

[19] = system: CAL-85-1; conditions: 72 h; remark: listed apart in the source
How it was run: as §2

[20] = system: CAL-148; conditions: 72 h
How it was run: as §2

[21] = system: CAL-85-1; experiment: normalised viability (% of control), CellTiter-Blue; higher = more viable cells (about 100 = DMSO control); conditions: incubation time: 72 h
Description: (§3)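 DSRT, CellTiter-Blue viability, 72 h incubation. Signal is normalised to DMSO and benzethonium chloride controls. Value is the normalised response at dose 7.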

[22] = system: MDA-MB-453; experiment: as above; conditions: incubation time: 72 h
Description: as §3

[23] = system: DU-4475; experiment: as above; conditions: incubation time: 72 h
Description: as §3

[24] = system: CAL-148; experiment: as above; conditions: incubation time: 72 h
Description: as §3

[25] = system: CAL-51; experiment: as above; conditions: incubation time: 72 h
Description: as §3

[26] = system: HDQ-P1; experiment: as above; conditions: incubation time: 72 h
Description: as §3

[27] = system: HCC1143; experiment: normalised response (% of control), CellTiter-Glo; higher = more viable cells (100 = DMSO, 0 = benzethonium chloride kill control); conditions: incubation time: 72 h
How it was run: (§4)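 Values are normalised signals, each belonging to one concentration of the series. Breast cancer cells (20 µl suspension) were seeded into 384-well plates with compound at 5 concentrations in 10-fold steps over a compound-specific 10,000-fold range and incubated 72 h. Readouts were CellTox Green fluorescence (485/520 nm), then CellTiter-Glo luminescence after 10 min at room temperature, with each plate set to 0.1 % DMSO as 100 and a positive kill control as 0.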

[28] = system: HCC1599; experiment: as above; conditions: incubation time: 72 h
How it was run: as §4

[29] = system: MDA-MB-453; experiment: as above; conditions: incubation time: 72 h
How it was run: as §4

[30] = system: BT-549; experiment: as above; conditions: incubation time: 72 h
How it was run: as §4

[31] = system: BT-474; experiment: as above; conditions: incubation time: 72 h
How it was run: as §4

[32] = system: MFM-223; experiment: as above; conditions: incubation time: 72 h
How it was run: as §4

[33] = system: MDA-MB-231; experiment: as above; conditions: incubation time: 72 h
How it was run: as §4

[34] = system: Hs578T; experiment: as above; conditions: incubation time: 72 h
How it was run: as §4

[35] = system: MCF-10A; experiment: as above; conditions: incubation time: 72 h
How it was run: as §4

| Structure (SMILES) | EC50, CellTiter-Glo [1] [µM] | EC50, CellTiter-Glo [4] [µM] | EC50, CellTiter-Glo [5] [µM] | EC50, CellTiter-Glo [6] [µM] | EC50, CellTiter-Glo [7] [µM] | EC50, CellTiter-Glo [8] [µM] | EC50, CellTiter-Glo [9] [µM] | EC50, CellTiter-Glo [10] [µM] | EC50, CellTiter-Glo [11] [µM] | EC50, CellTiter-Glo [12] [µM] | EC50, CellTiter-Glo [13] [µM] | EC50, CellTiter-Glo [14] [µM] | EC50, CellTiter-Glo [15] [µM] | EC50, CellTiter-Glo [17] [µM] | EC50, CellTiter-Glo [18] [µM] | other results |
| --- | --- | --- | --- | --- | --- | --- | --- | --- | --- | --- | --- | --- | --- | --- | --- | --- |
| Cc1cc(Nc2nc(N[C@@H](C)c3ncc(F)cn3)ncc2Cl)[nH]n1 [AZD1480] | 0.0946 | – | – | – | – | – | – | – | – | – | – | – | – | – | – | EC50, CellTiter-Blue viability [2]: 0.782 µM; EC50, CellTiter-Blue viability [3]: 0.443 µM |
| CC(C)(C)c1nc(-c2cccc(NS(=O)(=O)c3c(F)cccc3F)c2F)c(-c2ccnc(N)n2)s1 [Dabrafenib] | – | 0.0563 | 0.06 | > 2.5 | – | – | – | – | – | – | – | – | – | – | – | – |
| CC[C@H](CO)Nc1nc(NCc2ccccc2)c2ncn(C(C)C)c2n1 [Seliciclib] | – | – | – | – | 0.595 | – | – | – | – | – | – | – | – | – | – | – |
| CCN(CC)CCCC(C)Nc1ccnc2cc(Cl)ccc12 (stereo not given) [Chloroquine] | 13.7 | 9.49 | 18.7 | 30.2 | 6.56 | 15.3 | 14.1 | 11.3 | 10.6 | 4.03 | 15 | 14.5 | 4.91 | 16.3 | 20.7 | EC50, CellTiter-Glo [16]: 16.3 µM |
| O=[N+]([O-])c1ccc2c(c1)S(=O)(=O)C=C2 [Stattic] | 2.73 | 11 | 16.3 | 3.13 | 1.54 | 2.46 | 10.6 | 1.63 | 0.446 | 3.72 | 1.01 | 7.66 | 8.89 | 2.76 | 12.7 | EC50, CellTiter-Glo [16]: 7.93 µM |
| O=C(CCCCCCC(=O)Nc1ccccc1)NO [Vorinostat] | 5.67 | 8.47 | 2.3 | 6.67 | 2.18 | 6.28 | 3.99 | 2.32 | 1.2 | 1.18 | 7.34 | 3.76 | 3.47 | 3.17 | 8.32 | EC50, CellTiter-Blue viability [19]: 3.89 µM; EC50, CellTiter-Blue viability [2]: 0.96 µM; EC50, CellTiter-Blue viability [3]: 9 µM; EC50, CellTiter-Blue viability [20]: 3.25 µM |
| CC1(COc2ccc3c(c2)ncn3-c2ccc3cccc(N4CCC(N)CC4)c3n2)COC1 [Crenolanib] | – | – | 3.33 | 3.34 | 2.63 | > 10 | > 10 | 3.97 | 4.75 | 5.37 | 1.67 | 3.98 | 4.18 | 4.02 | 5.07 | EC50, CellTiter-Glo [16]: 4.11 µM |
| C=CCN(/C=C1/C(=O)O[C@H](COC)[C@@]2(C)C1=C(O)C(=O)C1=C2[C@H](OC(C)=O)C[C@]2(C)C(=O)CC[C@@H]12)CC=C [Sonolisib] | – | – | – | – | 0.39 | – | – | – | – | – | – | – | – | – | – | – |
| CN[C@@H](C)C(=O)N[C@H]1CN(C(=O)CC(C)C)CC[C@H]2CC[C@@H](C(=O)NC(c3ccccc3)c3ccccc3)N2C1=O [AT-406] | – | – | – | – | – | – | – | 0.826 | 0.563 | 4.49 | 0.00597 | 0.0838 | – | 0.278 | – | – |
| CC(O)(CS(=O)(=O)c1ccc(F)cc1)C(=O)Nc1ccc(C#N)c(C(F)(F)F)c1 (stereo not given) [Bicalutamide] (1000 nM) | – | – | – | – | – | – | – | – | – | – | – | – | – | – | – | normalised viability [21]: 91.1%; normalised viability [22]: 102%; normalised viability [23]: 90.1%; normalised viability [24]: 102%; normalised viability [25]: 108%; normalised viability [26]: 91.4%; normalised response [27]: 101%; normalised response [28]: 120%; normalised response [29]: 95%; normalised response [30]: 97.6%; normalised response [31]: 110%; normalised response [32]: 102%; normalised response [33]: 112%; normalised response [34]: 95.6%; normalised response [35]: 110% |
| COc1ccc(S(=O)(=O)Nc2cccnc2Nc2ccc(O)cc2)cc1 [ABT-751] (1000 nM) | – | – | – | – | – | – | – | – | – | – | – | – | – | – | – | normalised viability [21]: 32.3%; normalised viability [22]: 25.2%; normalised viability [23]: 66.1%; normalised viability [24]: 52.5%; normalised viability [25]: 39.7%; normalised viability [26]: 51.3%; normalised response [27]: 67.3%; normalised response [28]: 43.5%; normalised response [29]: 54.8%; normalised response [30]: 48.9%; normalised response [31]: 63.8%; normalised response [32]: 69.3%; normalised response [33]: 63.6%; normalised response [34]: 45.6%; normalised response [35]: 84.4% |
| CCn1c(C(=O)N(C2CC2)C2CC2)cc2c3c(ncn3C)c(Nc3cc(C)n(C)n3)nc21 | – | – | – | – | – | – | – | – | > 10 | – | – | – | – | – | – | – |
| CC(=O)[C@]1(O)Cc2c(O)c3c(c(O)c2[C@@H](O[C@H]2C[C@H](N)[C@H](O)[C@H](C)O2)C1)C(=O)c1ccccc1C3=O [Idarubicin] (100 nM) | – | – | – | – | – | – | – | – | – | – | – | – | – | – | – | normalised viability [21]: 75.7%; normalised viability [22]: 79.4%; normalised viability [23]: 27.7%; normalised viability [24]: 11.3%; normalised viability [25]: 28%; normalised viability [26]: 78.3%; normalised response [27]: 102%; normalised response [28]: 123%; normalised response [29]: 140%; normalised response [30]: 62.6%; normalised response [31]: 92.3%; normalised response [32]: 117%; normalised response [33]: 94.7%; normalised response [34]: 82.5%; normalised response [35]: 98.2% |
